Values joined by “and” are separate entries in the source; they are usually repeats but may differ in a detail not shown here. Equal values may be shown once. Toxic doses and inconclusive results are not listed.
Test system: BDF1 mice, P388 leukemia ip, median survival T/C
Test: NCI In Vivo Anticancer Drug Screen. Data for tumor model P388 Leukemia (intraperitoneal) in B6D2F1 (BDF1) mice
Details: endpoint: median survival time, higher = longer survival
Summary of the method: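 Steps: implant the tumour, treat one group with compound and another with vehicle, record survival, then divide treated by control.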

[1] = dose: 100.0 mg/kg/injection, schedule: Q01DX009 (ip), vehicle: saline with Tween-80

For `CC(=O)c1cccc(NC2C(N)C(NC(=O)N(C)C)(C(C)O)C(C)(O)C2(O)COC(=O)c2c(C)cccc2O)c1` (centres undefined), the T/C (dose: 5.4 mg/kg/injection, schedule: Q04DX003 (ip), vehicle: alkali diluted with saline) was 167 % of control, the T/C (dose: 6.5 mg/kg/injection, schedule: Q04DX003 (ip), vehicle: alkali diluted with saline) was 163 % of control and the T/C (dose: 8.64 mg/kg/injection, schedule: Q04DX003 (ip), vehicle: alkali diluted with saline) was 159 % of control. For the same compound, the T/C (dose: 9.0 mg/kg/injection, schedule: Q04DX003 (ip), vehicle: alkali diluted with saline) was 170 % of control and the T/C (dose: 10.8 mg/kg/injection, schedule: Q04DX003 (ip), vehicle: alkali diluted with saline) was 169 % of control.

`COCC(O)CC#N` (centres undefined) was tested, and the T/C (dose: 100.0 mg/kg/injection, schedule: Q01DX009 (ip), vehicle: saline) was 100 % of control, the T/C (dose: 100.0 mg/kg/injection, schedule: Q04DX003 (ip), vehicle: saline) was 95 % of control and the T/C (dose: 200.0 mg/kg/injection, schedule: Q01DX009 (ip), vehicle: saline) was 87 % of control. The T/C (dose: 200.0 mg/kg/injection, schedule: Q04DX003 (ip), vehicle: saline) was 95 % of control, the T/C (dose: 400.0 mg/kg/injection, schedule: Q01DX009 (ip), vehicle: saline) was 95 % of control and the T/C (dose: 400.0 mg/kg/injection, schedule: Q04DX003 (ip), vehicle: saline) was 100 % of control.

In the case of `O=c1cc[nH]c2cc(C(F)(F)F)ccc12`, the T/C (dose: 100.0 mg/kg/injection, schedule: Q04DX003 (ip), vehicle: saline sonified) is reported as 100 % of control and the T/C (dose: 200.0 mg/kg/injection, schedule: Q04DX003 (ip), vehicle: saline sonified) is reported as 95 % of control.

In the case of `CN(C)CC(=O)Nc1nc(-c2ccc(Cl)cc2)cs1`, the T/C (dose: 50.0 mg/kg/injection, schedule: Q01DX005 (ip), vehicle: saline with Tween-80) is reported as 101 % of control, the T/C (dose: 100.0 mg/kg/injection, schedule: Q01DX005 (ip), vehicle: saline with Tween-80) is reported as 92 % of control and the T/C (dose: 200.0 mg/kg/injection, schedule: Q01DX005 (ip), vehicle: saline with Tween-80) is reported as 99 % of control.

In the case of `CN=C1c2ccccc2C2(c3ccccc3)C1N2C` (centres undefined), the T/C (dose: 37.5 mg/kg/injection, schedule: Q01DX009 (ip), vehicle: saline with Tween-80) is reported as 104 % of control, the T/C (dose: 75.0 mg/kg/injection, schedule: Q01DX009 (ip), vehicle: saline with Tween-80) is reported as 109 % of control and the T/C (dose: 150.0 mg/kg/injection, schedule: Q01DX009 (ip), vehicle: saline with Tween-80) is reported as 118 % of control.

In the case of `Cc1c(CO)[nH]c(=S)[nH]c1=O`, the T/C (dose: 100.0 mg/kg/injection, schedule: Q01DX001 (ip), vehicle: Klucel (hydroxypropylcellulose) (HPC)) is reported as 90 % of control, the T/C (dose: 200.0 mg/kg/injection, schedule: Q01DX001 (ip), vehicle: Klucel (hydroxypropylcellulose) (HPC)) is reported as 104 % of control and the T/C (dose: 400.0 mg/kg/injection, schedule: Q01DX001 (ip), vehicle: Klucel (hydroxypropylcellulose) (HPC)) is reported as 95 % of control.

In the case of `COc1cc2c3c(c1)-c1nc4ccccc4cc1CN3CCC2`, the T/C (dose: 12.5 mg/kg/injection, schedule: Q04DX003 (ip), vehicle: other) is reported as 100 % of control, the T/C (dose: 25.0 mg/kg/injection, schedule: Q04DX003 (ip), vehicle: other) is reported as 113 % of control and the T/C (dose: 50.0 mg/kg/injection, schedule: Q04DX003 (ip), vehicle: other) is reported as 109 % of control.

For `CC(=O)OC(C)(C)c1ccccc1[S+]1OC(C)(C)c2ccccc21` (centres undefined), the T/C (dose: 100.0 mg/kg/injection, schedule: Q01DX001 (ip), vehicle: other) was 100 % of control.

In the case of `Nc1cccc2c1C(=O)C=CC2=O`, the T/C (dose: 1.15 mg/kg/injection, schedule: Q01DX009 (ip), vehicle: saline) is reported as 112 % of control, the T/C (dose: 2.3 mg/kg/injection, schedule: Q01DX009 (ip), vehicle: saline) is reported as 108 % of control and the T/C (dose: 3.25 mg/kg/injection, schedule: Q04DX003 (ip), vehicle: saline) is reported as 121 % of control. The T/C (dose: 4.6 mg/kg/injection, schedule: Q01DX009 (ip), vehicle: saline) was 108 % of control.

In the case of `O=C(N[C@H](CO)[C@H](O)c1ccc([N+](=O)[O-])cc1)C(Cl)Cl`, the T/C [1] is reported as 118 % of control.

With `OC(COc1cccc(C(F)(F)F)c1)CN1CCN(c2ccc(F)cc2)CC1` (centres undefined) the T/C (dose: 25.0 mg/kg/injection, schedule: Q01DX009 (ip), vehicle: saline with Tween-80) was 96 % of control, the T/C (dose: 50.0 mg/kg/injection, schedule: Q01DX009 (ip), vehicle: saline with Tween-80) was 96 % of control and the T/C [1] was 118 % of control.

`O=S(=O)(OCCF)c1cc(Cl)c(Cl)cc1Cl` was tested, and the T/C (dose: 50.0 mg/kg/injection, schedule: Q01DX005 (ip), vehicle: Klucel (hydroxypropylcellulose) (HPC)) was 113 % of control.

In the case of `CC1=C[S+](c2ccccc2)c2cccc3cc4ccccc4c1c23` (centres undefined), the T/C (dose: 0.4 mg/kg/injection, schedule: Q01DX009 (ip), vehicle: saline with Tween-80) is reported as 154 % of control, the T/C (dose: 0.6 mg/kg/injection, schedule: Q01DX009 (ip), vehicle: saline with Tween-80) is reported as 165 % of control and the T/C (dose: 0.9 mg/kg/injection, schedule: Q01DX009 (ip), vehicle: saline with Tween-80) is reported as 154 % of control and 155 % of control. The T/C (dose: 2.5 mg/kg/injection, schedule: Q01DX009 (ip), vehicle: saline with Tween-80) was 116 % of control.

Source: PubChem BioAssay AID328 (DTP/NCI, 2004)
